| Structure (SMILES) | melting point [°C] |
| --- | --- |
| N#Cc1ccccc1NCc1nc2ccc(F)cc2c(=O)n1-c1cccnc1Cl | 183 to 187 |
| CC1=C(NC=O)C(C)C(C)(C(C)C)C2=C1CC(C)(CI)O2 (stereo not given) | 145 to 147 |
| CSCN1C(=O)c2cccnc2N(CSC)c2cc(Cl)ccc21 | 181 to 182 |
| CC(=O)OCc1nc2cc(Cl)c(C)cc2c(=O)n1C | 110 to 112 |
| COc1ccc2c(c1)C(N1CCCC1=O)NN=C2Cc1c(Cl)cncc1Cl (stereo not given) | 223 to 225 |
| COc1ccccc1N1CCN(C(=O)OC(C)(C)C)CC1 | 70 to 71 |
| CC(C)(C)C(NC(=O)c1cc(F)cc(F)c1)Nc1c(Nc2cccnc2Cl)c(=O)c1=O (stereo not given) | 215 to 217 |
| Cc1ncc(-c2ccc(Cl)cc2)cc1C#N | 158 to 159 |
| CCOC(=O)C(=O)Nc1cccc(-c2nnn[nH]2)c1 | 192 to 193 |
| OCC1Cc2c([nH]c3ccccc23)CN1 (stereo not given) | 191 to 193 |
| CC(=N)Nc1cccc([N+](=O)[O-])c1 | 226 to 228 |
| CCC1C(C)=NN=C(c2ccc(O)c(O)c2)c2cc(O)c(O)cc21 (stereo not given) | 250 to 251 |
| CCC1(c2cc(NC(=O)c3c(OC)cccc3OC)no2)CCCCC1 | 179 to 181 |
| CC(=O)Oc1ccccc1C(=O)OCCSS(C)(=O)=O | 90 to 91 |
| Oc1nnc(Cl)cc1N1CCNCC1 | 35 |
| CNc1ccc(C#N)cc1 | 85 to 87 |
| COc1ccc(/C=C(\C#N)c2ccc(Cl)cc2Cl)cc1OC1CCCC1 | 105 to 107 |
| COc1ccc(Cl)cc1NC(=O)[C@H]1[C@H](c2cccc(C)c2)C1(C)C (relative stereo) | 148 to 150 |
| CCC1(NC(=O)CCl)COCOC1 | 89 to 95 |

| Structure (SMILES) | melting point [°C] |
| --- | --- |
| Cc1ccc(CCCO)c(NCc2ccc3nc(NCCCN4CCOCC4)n(Cc4cc(Br)ccc4O)c3c2)c1 | 134 |
| COc1cc2c(cc1C(C)=O)sc1ccccc12 | 163 to 165 |
| Cc1[nH]c(=O)sc1C(=O)c1ccc(N(C)C)cc1 | 224 to 226 |
| CC(C)S(=O)(=O)C(C#N)=C(Nc1cc(C(F)(F)F)cc(C(F)(F)F)c1)NC1CCCC1 | 172 to 173 |
| CC1(C)NC(=O)N(CSc2cc(C(C)(C)C)c(O)c(C(C)(C)C)c2)C1=O | 160 to 162 |
| Cc1cc(C)n2nc(OC(=S)N(C)C)cc2n1 | 216 to 217 |
| O=[N+]([O-])c1sc2ccc(F)cc2c1Br | 129 to 130 |
| CC(C)(C)Nc1nccc(C#C[Si](C)(C)C)n1 | 71 to 73 |
| Cc1nc(NCCSCc2nc[nH]c2C)[nH]c(=O)c1Cc1cccnc1 | 128 to 131 |
| On1nnc2cccnc21 | 216 to 217 |
| c1ccc(-c2cncs2)cc1 | 45 to 46 |
| CC1(C)OCCN1C(=O)C(Cl)Cl | 113 to 115 |
| NC(=O)c1ccc(F)c2c1OCC(N)C2 (stereo not given) | 128 |
| COC(=O)CCC/C=C/c1nn(-c2ccc(NC(C)=O)cc2)c2c1CCC2 | 118 to 120 |
| CCCCCCCNC(=O)N(C)c1cccc(-c2ccc(C=C(OC)C(=O)O)cc2OCCCC)c1 | 99 |
| COC(=O)c1ccc(N=C2NCCN2)c(C)c1 | 193 to 194 |
| O=c1oc2ccccc2c(O)c1CCCCC1CCCCC1 | 160 to 161 |
| CC(C)NC(=O)C(O)C(Cc1ccccc1)NC(=O)OC(C)(C)C (mixture of isomers) | 126 to 145 |
| Cn1c(=O)c(-c2c(Cl)cccc2Cl)cc2cnc(NCCCN3CCOCC3)nc21 | 140 to 142 |

| Structure (SMILES) | melting point [°C] |
| --- | --- |
| COc1ccc(S(=O)(=O)Nc2ccc(Cl)c(OCCN(C)C)c2)cc1OC | 103 to 106 |
| O=[N+]([O-])c1ccc2c(c1)CN1C(=S)SC[C@@H]1C2 | 182 |
| CN(C)c1ccc(C(=O)C(C)(C)N2CCOCC2)cc1 | 152 to 155 |
| NCC(O)CSc1ccccc1 (stereo not given) | 57 to 61 |
| C=CC(O)C1OC(C)(C)OC1C(O)CO (stereo not given) | 73 to 74 |
| COC(=O)C(=C(C)C)N1CC(N2C(=O)c3ccccc3C2=O)C1=O (stereo not given) | 127 to 128 |
| CCOC(=O)c1cccc(Nc2ccncc2N)c1 | 80 to 91 |
| CC(=O)NCC(=O)N(C)c1ccc(Cl)c(COc2cccn3c(Br)c(C)nc23)c1Cl | 187 to 189 |
| CN1CCCC2CCCC(N(C)C(=O)Cc3ccc(Cl)c(Cl)c3)C21 (stereo not given) | 92 |
| CN(c1cccc2cc(C(N)=O)[nH]c12)S(=O)(=O)c1nccs1 | 220 to 221 |
| Cc1cc(C(C)(C)C#N)cc(C(C)(C)C#N)c1 | 126 to 127 |
| COc1cccc2c1C(=O)N(C)CC(=O)N2 | 208 to 210 |
| CC(=O)OCCC1CC2=C(O1)C(C)=CC(C)(O)C2C (racemic) | 90 to 92 |
| COC(=O)C(Cl)(C(=O)OC)[C@@H](C[N+](=O)[O-])c1ccccc1 | 175 to 177 |
| CCOC(=O)C(=CNc1cc(=O)c2ccccc2o1)C(=O)OCC | 138 to 140 |
| CCC1C(C)=NN=C(c2cc(OC)c(OC)c(OC)c2)c2cc(OC)c(OC)cc21 (stereo not given) | 152 to 155 |
| COC(=O)CNC(=O)NC(CSC(C)=O)Cc1ccccc1 (stereo not given) | 102 |
| COc1cc(C(=O)CBr)cc(OC)c1OC | 61 to 62 |

Now from value to compound:

| melting point [°C] | Structure (SMILES) |
| --- | --- |
| 102 to 103 | COc1ccc(CN(C(=O)C(F)(F)F)c2cc(F)cc(C#N)c2)cc1 |
| 205 to 206 | C[Si](C)(C)C#Cc1cccc2c1C1(c3ccccc3-c3ccccc31)c1ccccc1-2 |
| 134 | Cn1cc(-c2ccccc2)c(=O)c(-c2cccc(F)c2)c1 |
| 137 to 142 | Nc1ccc(Nc2ccc(CCc3ccc(Cl)c(Cl)c3)cc2)c(C(=O)O)c1 |
| 140 | CC(=O)SCC(Cc1ccccc1)NC(=O)N1CCN(c2ccc(Cl)cc2)CC1 (single isomer, unassigned; (+)) |
| 185 to 187 | CCCC(=O)c1cnc2c(C(N)=O)cccc2c1Nc1ccccc1C |
| 214 to 215 | CC(c1ccc(F)c(F)c1)n1ncc(-c2ccc(S(N)(=O)=O)cc2)c(-c2ccc(F)cc2)c1=O (stereo not given) |
| 118 to 121 | CC(NC=O)c1ccc(Nc2nccc(-c3cccnc3)n2)cc1 (stereo not given) |
| 160 to 161 | CS(=O)(=O)c1ccc(-c2cnn(Cc3cccnc3)c(=O)c2-c2ccc(F)cc2)cc1 |
| 74 to 75 | CC(=O)OCc1cn(-c2ccccc2)nc1OCc1ccccc1 |
| 100 to 101 | O=C(Nc1ccc(Oc2ccccc2)cc1)N1CCN(c2nnc(Cc3ccccc3)c3ccccc23)CC1 |
| 217 to 220 | C[C@]1(COc2ccc(N3CCC(OCc4ccc(C(F)(F)F)cc4)CC3)cc2)Cn2cc([N+](=O)[O-])nc2O1 |
| 89 to 90 | Cc1cc(-c2ccc(C(F)(F)F)cc2)nc2ccnn12 |
| 170 to 173 | COC(=O)c1ccc(-c2ccc3cc(OCc4ccccc4)c(C45CC6CC(CC(C6)C4)C5)cc3c2)cc1 |
| 260 to 263 | CCNc1nc(-c2ccc(NC(=O)NCc3cccnc3)cc2)ccc1C(=O)NC |
| 128 to 131 | O=C(c1ccccc1F)c1ccc(O)c(Cl)c1Cl |
| 146 to 147 | Cc1c(-c2ccccc2)oc2c(S(=O)(=O)N(C)CCO)cccc2c1=O |
| 177 to 178 | COC(=O)C(=O)c1ccc(OCCOc2cc3ccccc3cc2O)cc1 |
| 299 to 300 | Cc1ccc2c(O)c(-c3cccc(Oc4ccccc4)c3)c(=O)[nH]c2c1 |
| 108 to 109 | COc1ccc(COc2nn(Cc3ccccc3)cc2CO)cc1OCc1nc(-c2ccco2)oc1C |
| 194 to 198 | CCOc1ccc(NS(=O)(=O)c2cccc3c(N(C)C)cccc23)nn1 |
| 177 to 182 | CCCc1cc(Cl)c2oc(C(=O)c3ccc(Cl)cc3)c(C)c2c1OC(=O)c1ccc(Cl)cc1 |

| melting point [°C] | Structure (SMILES) |
| --- | --- |
| 128 to 130 | CC(C)Oc1ccc(-c2ccc3nnn(Cc4ccc5ncccc5c4)c3n2)cc1F |
| 162 | O=C(O)CCc1cc2cc(-c3ccc(C(F)(F)F)cc3)ccc2n1S(=O)(=O)c1ccccc1 |
| 221 to 223 | CCOC(=O)c1cc(O)cc2cc(-c3ccc(O)cc3)oc12 |
| 280 | CS(=O)(=O)N1CCCn2c(nc3c(N)nc4ccccc4c32)C1 |
| 171 to 172 | Cc1ccn(-c2ccc(C(=O)N3Cc4cccn4Cc4ccccc43)c(Cl)n2)n1 |
| 194 to 195 | CC1(C)OC(c2ccc(S(C)(=O)=O)cc2)=C(c2cccc3ccccc23)C1=O |
| 205 to 207 | O=C(O)Cc1ccc(NC(=O)C(COc2ccc(Cl)cc2)NS(=O)(=O)c2ccc(Cl)cc2)cc1 (racemic) |
| 176 | Cn1nc(-c2ccc(Cl)cc2)c2c1-c1ccccc1C2 |
| 234 | O=C(c1cccnc1)N1CCC(c2nc(-c3cnc(-c4ccccc4)nc3)c[nH]2)CC1 |
| 113 to 114 | COc1ccc(C(=O)CN(Cc2ccccc2)Cc2ccccc2)cc1C(N)=O |
| 180 to 181 | COC(=O)c1ccc(Cc2cn(C)c3ccc(NC(=O)CC4CCCC4)cc23)c(OC)c1 |
| 44 to 47 | CCOCNC(=O)c1cc(OC)cc(Oc2cccc(C(F)(F)F)c2)n1 |
| 166 to 170 | c1cc(OCc2ccc3ccccc3n2)cc(OCc2ccccc2-c2nnn[nH]2)c1 |
| 194 to 195 | CS(=O)c1ccccc1C(=O)Nc1ccccc1 (stereo not given) |
| 186 to 188 | CNC(=O)N1CCC(C(c2ccc(F)cc2)N(CCc2ccccc2)C(=O)NC)CC1 (stereo not given) |
| 208 to 209 | O=[N+]([O-])c1cccc(Nc2nccc(Sc3cccc(Br)c3)n2)c1 |
| 173 to 174 | CCCCN(CCCC)S(=O)(=O)c1cc(O)c(N=Nc2c(C)nn(-c3ccccc3)c2O)c2ccccc12 |
| 183 to 184 | CN(C)c1ncc(-c2cccc(-n3cnc4cc(-c5ccoc5)ccc43)c2)cn1 |
| 200 to 201 | Cc1nc(-c2ccc(C#N)cc2)sc1C(=O)N1CO[C@@](Cn2cncn2)(c2ccc(F)cc2F)[C@H]1C |
| 135 | CC(C=Cc1ccccc1)NC(=O)c1ccccc1 (racemic) |
| 112 to 115 | OCC=C(c1ccccc1)c1ccccc1 |
| 166 | COc1ccc(C(CC(=O)Nc2ccc(NC(=O)Nc3ccccc3C)cc2)NC(=O)c2ccc(C(=O)O)cc2)cc1OC (stereo not given) |
